Assay results taken from ChEMBL document CHEMBL3853265 (Medchemcomm, 2016).

How the values were obtained:
Rattus norvegicus [1] = assay: Toxicity in Wistar Han rat assessed as mortality at 300 mg/kg, po administered as single dose; format: organism-based; details: in vivo
[2] = Volume of distribution at steady state in dog at 1 mg/kg, iv and 3 mg/kg, po; format: ADME, organism-based, Canis lupus familiaris; details: in vivo, read-out: Vdss
[3] = Half life in dog at 1 mg/kg, iv and 3 mg/kg, po; format: ADME, organism-based, Canis lupus familiaris; details: in vivo
[4] = Plasma clearance in dog at 1 mg/kg, iv and 3 mg/kg, po; format: ADME, organism-based, Canis lupus familiaris
[5] = Oral bioavailability in dog at 3 mg/kg; format: ADME, organism-based, Canis lupus familiaris; details: in vivo
Rattus norvegicus [6] = assay: Toxicity in Wistar Han rat at <= 100 mg/kg/day, po administered for 14 days by macroscopic analysis; format: organism-based; details: in vivo, 336 h
[7] = Plasma clearance in rat at 1 mg/kg, iv and 3 mg/kg, po; format: ADME, organism-based
[8] = Toxicity in po dosed dog assessed as drug tolerance administered as single dose; format: organism-based, Canis lupus familiaris; details: in vivo
[9] = Oral bioavailability in dog at 0.737 mg/kg; format: ADME, organism-based, Canis lupus familiaris; details: in vivo
[10] = Drug recovery in bile of bile duct cannulated rat; format: ADME; details: read-out: Drug recovery
[11] = Drug metabolism in dog hepatocytes; format: ADME, cell-based, Canis lupus familiaris, Hepatocyte
[12] = Toxicity in dog assessed as transient panting at 10 mg/kg, po administered as single dose measured up to 30 hrs post dose; format: organism-based, Canis lupus familiaris; details: in vivo
[13] = Drug metabolism in rat hepatocytes assessed as glucuronidation in presence of glutathione and water; format: ADME, cell-based, Hepatocyte
[14] = Toxicity in dog assessed as increase in body temperature at 30 mg/kg, po administered as single dose; format: organism-based, Canis lupus familiaris; details: in vivo
[15] = Toxicity in dog assessed as increase in body temperature at 10 mg/kg, po administered as single dose measured up to 3 days post dose; format: organism-based, Canis lupus familiaris; details: in vivo, 72 h
BCRP (ABCG2) = target: T1, BCRP (ABCG2) (Homo sapiens, UniProt Q9UNQ0); assay: Substrate activity at BCRP (unknown origin) assessed as efflux ratio of permeability; format: ADME; details: not told
T1 sequence (Q9UNQ0 whole entry): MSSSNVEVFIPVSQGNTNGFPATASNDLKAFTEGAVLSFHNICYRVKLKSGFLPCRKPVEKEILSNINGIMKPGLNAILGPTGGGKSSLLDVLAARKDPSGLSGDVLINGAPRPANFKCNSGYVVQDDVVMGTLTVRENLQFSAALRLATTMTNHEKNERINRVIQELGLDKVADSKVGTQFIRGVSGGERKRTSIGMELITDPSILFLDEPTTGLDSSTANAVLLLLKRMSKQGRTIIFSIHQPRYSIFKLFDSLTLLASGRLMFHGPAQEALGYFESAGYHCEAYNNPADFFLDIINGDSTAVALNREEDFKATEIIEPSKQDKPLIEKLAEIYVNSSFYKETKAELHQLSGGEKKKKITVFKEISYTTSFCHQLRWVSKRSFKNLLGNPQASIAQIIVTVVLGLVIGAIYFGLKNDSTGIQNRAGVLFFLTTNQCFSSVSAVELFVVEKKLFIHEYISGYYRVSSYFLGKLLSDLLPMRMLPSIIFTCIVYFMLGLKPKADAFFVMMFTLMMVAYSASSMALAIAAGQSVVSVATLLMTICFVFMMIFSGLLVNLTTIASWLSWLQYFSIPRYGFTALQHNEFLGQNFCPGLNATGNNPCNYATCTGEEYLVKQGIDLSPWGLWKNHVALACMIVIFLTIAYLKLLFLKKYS

[16] = Half life in dog at 0.363 mg/kg, iv and 0.737 mg/kg, po; format: ADME, organism-based, Canis lupus familiaris; details: in vivo
[17] = Toxicity in dog assessed as increase in body temperature at 100 mg/kg, po administered as single dose; format: organism-based, Canis lupus familiaris; details: in vivo
Cytochrome P450 2C9 = Cytochrome P450 2C9 (Homo sapiens, UniProt P11712); assay: Inhibition of CYP2C9 (unknown origin); format: ADME
Chain of Cytochrome P450 2C9 (P11712 whole entry): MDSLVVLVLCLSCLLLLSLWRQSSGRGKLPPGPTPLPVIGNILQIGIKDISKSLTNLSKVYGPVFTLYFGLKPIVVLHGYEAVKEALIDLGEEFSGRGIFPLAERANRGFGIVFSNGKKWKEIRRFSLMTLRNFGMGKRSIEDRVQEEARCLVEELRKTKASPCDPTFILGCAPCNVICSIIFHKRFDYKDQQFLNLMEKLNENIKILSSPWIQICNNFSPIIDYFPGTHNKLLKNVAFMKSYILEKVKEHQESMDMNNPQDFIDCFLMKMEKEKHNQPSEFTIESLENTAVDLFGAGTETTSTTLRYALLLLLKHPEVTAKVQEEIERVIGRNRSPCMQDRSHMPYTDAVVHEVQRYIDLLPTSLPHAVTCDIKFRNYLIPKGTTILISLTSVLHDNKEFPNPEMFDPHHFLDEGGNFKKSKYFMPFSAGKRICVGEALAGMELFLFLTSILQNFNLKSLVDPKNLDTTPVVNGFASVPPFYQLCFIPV

P-gp = assay: Substrate activity at p-gp (unknown origin) assessed as efflux ratio of permeability; format: ADME; details: human, not told
[18] = Average plasma concentration in Wistar Han rat at 10 mg/kg, po administered as single dose measured on day 14; format: ADME, organism-based; details: in vivo
[19] = Toxicity in dog assessed as emesis at 30 mg/kg, po administered as single dose measured 30 mins post dose; format: organism-based, Canis lupus familiaris; details: in vivo, 0.5 h
Cytochrome P450 2C8 = target: T2, Cytochrome P450 2C8 (Homo sapiens, UniProt P10632); assay: Inhibition of CYP2C8 (unknown origin); format: ADME
T2 sequence (P10632 whole entry): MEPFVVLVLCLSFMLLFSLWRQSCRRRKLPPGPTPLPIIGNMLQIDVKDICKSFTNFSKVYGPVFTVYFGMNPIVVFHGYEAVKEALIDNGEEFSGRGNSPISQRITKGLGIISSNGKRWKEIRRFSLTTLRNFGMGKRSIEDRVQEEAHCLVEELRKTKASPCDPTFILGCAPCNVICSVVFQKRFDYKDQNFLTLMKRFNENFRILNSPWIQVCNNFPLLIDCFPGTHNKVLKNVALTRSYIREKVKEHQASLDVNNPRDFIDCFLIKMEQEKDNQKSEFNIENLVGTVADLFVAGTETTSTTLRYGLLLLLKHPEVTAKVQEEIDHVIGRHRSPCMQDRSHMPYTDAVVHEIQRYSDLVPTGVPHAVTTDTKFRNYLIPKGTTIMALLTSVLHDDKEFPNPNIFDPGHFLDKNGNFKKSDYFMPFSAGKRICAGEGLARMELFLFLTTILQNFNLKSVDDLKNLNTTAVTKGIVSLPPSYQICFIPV

[20] = Drug metabolism in rat liver microsomes assessed as monooxidation at phenyl and pyridine moieties; format: ADME
Rattus norvegicus [21] = assay: Toxicity in Wistar Han rat assessed as increase in liver to body weight ratio at >= 30 mg/kg/day, po administered for 14 days; format: organism-based; details: in vivo, 336 h
Rattus norvegicus [22] = assay: Toxicity in Wistar Han rat assessed as increase in lymphocyte counts at >= 30 mg/kg/day, po administered for 14 days; format: organism-based; details: in vivo, 336 h
[23] = Drug metabolism in rat hepatocytes assessed as monooxidation and glucuronidation; format: ADME, cell-based, Hepatocyte
[24] = Drug metabolism in rat hepatocytes assessed as glucuronidation in presence of glutathione; format: ADME, cell-based, Hepatocyte

O=S(=O)(Nc1cncc(C(F)(F)F)c1)c1ccccc1C(F)(F)F
Activity (Rattus norvegicus [1]): Toxic
Vd [2]: 0.18 L/kg
half-life [3]: 2.4 h
clearance [4]: 1 mL/min/kg
bioavailability [5]: 145%
Activity (Rattus norvegicus [6]): Non-Toxic
clearance [7]: 0.55 mL/min/kg

O=S(=O)(Nc1ccc(C(F)(F)F)nc1)c1ccccc1C(F)(F)F
Activity [8]: <= 30 mg kg-1
bioavailability [9]: 104%
dose excreted [10]: < 1%
Drug metabolism [11]: Metabolite_Notdetected
Activity [12]: Toxic
Drug metabolism [13]: Metabolite_Detected
deltaT [14]: > 1.1 °C
Activity [15]: Toxic
efflux ratio (BCRP (ABCG2)): 3.3
half-life [16]: 103 h
Activity [17]: Toxic
IC50 (Cytochrome P450 2C9): 1100 nM
efflux ratio (P-gp): 1.1
Cave [18]: 422 nM
Activity [19]: Toxic
IC50 (Cytochrome P450 2C8): > 30000 nM
Drug metabolism [20]: Metabolite_Detected
Activity (Rattus norvegicus [21]): Non-Toxic
clearance [7]: 0.18 mL/min/kg
Activity (Rattus norvegicus [22]): Non-Toxic
Drug metabolism [23]: Metabolite_Detected
Drug metabolism [24]: Metabolite_Detected
